Results published in patent US6906069B1, “LXR modulators” (Amgen Inc., priority 1999, dated 2005).

target: T1, LXRα (Homo sapiens, UniProt Q13133); assay: cell-based GAL4-LXRα ligand-binding domain luciferase reporter screen for agonists; conditions: 10 μM compound; transfected 293 cells; relative to control (no additional compound) assigned a value of 1
T1 construct: expressed in transfected cells; host or cells: 293 cells
T1 sequence (Q13133 209-447 limits assumed): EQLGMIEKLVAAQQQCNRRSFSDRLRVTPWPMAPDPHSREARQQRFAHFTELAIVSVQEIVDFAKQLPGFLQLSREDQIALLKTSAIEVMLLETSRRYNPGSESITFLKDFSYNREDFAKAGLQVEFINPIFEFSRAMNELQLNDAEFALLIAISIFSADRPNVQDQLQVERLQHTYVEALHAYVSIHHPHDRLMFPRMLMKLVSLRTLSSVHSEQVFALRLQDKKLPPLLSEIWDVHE
Experimental: In order to identify agonists for LXRα, a cell-based high throughput screen was developed. Briefly, a DNA-binding domain of the nonreceptor transcription factor GAL4 was fused to the putative ligand-binding domain of LXRα. The resulting construct was introduced into 293 cells, together with an UAS-containing luciferase reporter construct. The transfected cells were then treated with the compounds and luciferase activity was measured. Individual compounds were evaluated relative to a control (no additional compound) at a concentration of 10 μM. Relative luciferase activity is provided below for five of the compounds described in the Examples above (luciferase activity of the control was assigned a value of 1).

Row | Compound | Relative Activity (relative luciferase activity)
1 | CC(c1ccco1)N(C(=O)C12CC3CC(CC(C3)C1)C2)c1ccccn1 (centres unmarked) [Example 1] | 4
2 | CC(c1ccco1)N(C(=O)C12CC3CC(CC(C3)C1)C2)c1cccnc1 (centres unmarked) [Example 2] | 5
3 | CC(c1ccco1)N(C(=O)C12CC3CC(CC(C3)C1)C2)c1ccncc1 (centres unmarked) [Example 3] | ≧10
4 | CC(c1ccco1)N(C(=O)C12CC3CC(CC(C3)C1)C2)c1ccccc1 (centres unmarked) [Example 4] | 3
5 | CC(c1ccccn1)N(C(=O)C1(C)CCCCC1)C(C)c1ccco1 (centres unmarked) [Example 5] | ≧10
